Columns and labels:
[1] = Ratio of drug level in brain to blood in complete Freund's adjuvant-induced rat inflammatory pain model at 2 mg/kg, po after 1 hr; format: ADME, organism-based; set-up: dose 2 mg/kg, route oral
[2] = Ratio of drug level in brain to blood in complete Freund's adjuvant-induced rat inflammatory pain model at 1 mg/kg, po after 1 hr; format: ADME, organism-based; set-up: dose 1 mg/kg, route oral
[3] = Ratio of drug level in brain to blood in complete Freund's adjuvant-induced rat inflammatory pain model 3 mg/kg, po after 1 hr; format: ADME, organism-based; set-up: dose 3 mg/kg, route oral
[4] = Ratio of drug level in brain to blood in complete Freund's adjuvant-induced rat inflammatory pain model at 10 mg/kg, po after 1 hr; format: ADME, organism-based; set-up: dose 10 mg/kg, route oral
[5] = Drug level in blood of sub-chronic rat joint pain efficacy model satellite animal group at 5 mg/kg bid measured on day 1 after 1 hr post dose; format: ADME, organism-based; set-up: dose 5 mg/kg; conditions: read-out: Drug uptake
[6] = Drug level in brain of sub-chronic rat joint pain efficacy satellite animal group model at 5 mg/kg bid measured on day 5 after 1 hr post dose; format: ADME, organism-based; set-up: dose 5 mg/kg; conditions: read-out: Drug uptake
[7] = Ratio of drug level in brain to blood of sub-chronic rat joint pain efficacy model satellite animal group at 5 mg/kg bid measured on day 5; format: ADME, organism-based; set-up: dose 5 mg/kg
[8] = molecular target: T1, Prostaglandin E2 receptor EP3 subtype (Homo sapiens, UniProt P43115); test: Activity at EP3 receptor by FLIPR method
T1 sequence (P43115 whole entry): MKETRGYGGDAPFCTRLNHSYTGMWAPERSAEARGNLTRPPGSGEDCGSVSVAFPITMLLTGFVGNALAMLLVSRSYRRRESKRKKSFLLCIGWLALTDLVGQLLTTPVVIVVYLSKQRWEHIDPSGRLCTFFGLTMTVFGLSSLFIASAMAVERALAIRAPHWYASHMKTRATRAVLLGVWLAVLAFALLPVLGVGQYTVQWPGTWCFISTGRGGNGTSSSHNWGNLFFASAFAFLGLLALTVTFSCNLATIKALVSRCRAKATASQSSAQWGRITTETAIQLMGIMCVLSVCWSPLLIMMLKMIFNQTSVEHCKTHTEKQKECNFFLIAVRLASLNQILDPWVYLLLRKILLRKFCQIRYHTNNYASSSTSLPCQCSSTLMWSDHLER

[9] = molecular target: T2, Peroxisome proliferator-activated receptor alpha (Homo sapiens, UniProt Q07869); test: Activity at PPARalpha
T2 sequence (Q07869 whole entry): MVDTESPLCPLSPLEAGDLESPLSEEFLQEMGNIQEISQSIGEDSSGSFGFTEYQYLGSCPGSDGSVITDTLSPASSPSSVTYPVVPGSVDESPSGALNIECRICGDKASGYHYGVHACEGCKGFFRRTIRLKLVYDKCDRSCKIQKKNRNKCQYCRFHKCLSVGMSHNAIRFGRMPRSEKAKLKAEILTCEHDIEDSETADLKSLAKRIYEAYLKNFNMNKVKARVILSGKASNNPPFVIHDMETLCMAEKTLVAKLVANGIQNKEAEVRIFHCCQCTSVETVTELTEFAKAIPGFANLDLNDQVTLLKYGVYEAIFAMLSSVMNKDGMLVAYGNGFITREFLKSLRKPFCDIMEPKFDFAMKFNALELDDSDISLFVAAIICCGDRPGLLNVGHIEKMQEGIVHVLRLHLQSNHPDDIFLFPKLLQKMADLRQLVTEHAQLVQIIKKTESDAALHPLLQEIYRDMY

[10] = molecular target: T3, Peroxisome proliferator-activated receptor gamma (Homo sapiens, UniProt P37231); test: Activity at PPARgamma
T3 sequence (P37231 whole entry): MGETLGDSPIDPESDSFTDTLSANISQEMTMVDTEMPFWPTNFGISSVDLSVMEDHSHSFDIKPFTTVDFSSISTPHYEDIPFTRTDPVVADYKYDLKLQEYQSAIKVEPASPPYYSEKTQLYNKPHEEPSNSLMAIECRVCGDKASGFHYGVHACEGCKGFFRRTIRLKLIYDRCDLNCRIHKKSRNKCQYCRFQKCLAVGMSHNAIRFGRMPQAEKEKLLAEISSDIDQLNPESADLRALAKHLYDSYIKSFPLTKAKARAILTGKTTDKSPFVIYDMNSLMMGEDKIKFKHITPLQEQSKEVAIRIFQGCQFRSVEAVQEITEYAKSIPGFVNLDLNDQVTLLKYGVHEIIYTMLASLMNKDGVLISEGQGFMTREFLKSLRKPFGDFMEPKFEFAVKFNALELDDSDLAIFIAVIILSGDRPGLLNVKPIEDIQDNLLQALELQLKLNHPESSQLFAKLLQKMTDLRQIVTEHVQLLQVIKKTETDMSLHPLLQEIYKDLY

[11] = Lipophilicity, log D at pH 7.4; format: physicochemical; conditions: buffer
Blood = test: Fraction unbound in rat blood; format: ADME, tissue-based
[12] = Blood clearance in rat at 1 mg/kg, iv; format: ADME, organism-based; set-up: dose 1 mg/kg, route intravenous
[13] = Solubility in simulated gastric fluid after 24 hrs; format: physicochemical
[14] = Solubility in fasted state simulated intestinal fluid after 2 hrs; format: physicochemical
[15] = Solubility in fasted state simulated intestinal fluid after 24 hrs; format: physicochemical
[16] = Solubility in fed state simulated intestinal fluid after 2 hrs; format: physicochemical
[17] = Volume of distribution at steady state in rat at 1 mg/kg, iv; format: ADME, organism-based; set-up: dose 1 mg/kg, route intravenous; conditions: in vivo, read-out: Vdss
[18] = Half life in rat at 1 mg/kg, iv; format: ADME, organism-based; set-up: dose 1 mg/kg, route intravenous; conditions: in vivo
Liver microsomes = test: Metabolic stability assessed as intrinsic clearance per gram of human liver microsomes; format: ADME, Microsome
[19] = Drug level in mouse blood at 3 mg/kg, po after 0.5 hrs; format: ADME, organism-based; set-up: dose 3 mg/kg, route oral; conditions: read-out: Drug uptake
[20] = Ratio of drug level in brain to blood in mouse at 3 mg/kg, po after 0.5 hr; format: ADME, organism-based; set-up: dose 3 mg/kg, route oral
[21] = Drug level in rat brain at 0.28 mg/kg/hr, iv for 18 hrs; format: ADME, organism-based; set-up: route intravenous; conditions: read-out: Drug uptake
[22] = Drug level in brain of complete Freund's adjuvant-induced rat inflammatory pain model at 2 mg/kg, po after 1 hr; format: ADME, organism-based; set-up: dose 2 mg/kg, route oral; conditions: read-out: Drug uptake
[23] = Drug level in blood of complete Freund's adjuvant-induced rat inflammatory pain model at 2 mg/kg, po after 1 hr; format: ADME, organism-based; set-up: dose 2 mg/kg, route oral; conditions: read-out: Drug uptake
[24] = Drug level in brain of sub-chronic rat joint pain efficacy model treatment group at 5 mg/kg bid measured on day 5 after 1 hr post dose; format: ADME, organism-based; set-up: dose 5 mg/kg; conditions: read-out: Drug uptake
[25] = Ratio of drug level in brain to blood of sub-chronic rat joint pain efficacy model treatment group at 5 mg/kg bid measured on day 5 after 1 hr post dose; format: ADME, organism-based; set-up: dose 5 mg/kg
[26] = molecular target: Voltage-gated inwardly rectifying potassium channel KCNH2 (Homo sapiens, UniProt Q12809); test: Displacement of [3H]dofetilide from human ERG receptor
Voltage-gated inwardly rectifying potassium channel KCNH2, sequence (Q12809 whole entry): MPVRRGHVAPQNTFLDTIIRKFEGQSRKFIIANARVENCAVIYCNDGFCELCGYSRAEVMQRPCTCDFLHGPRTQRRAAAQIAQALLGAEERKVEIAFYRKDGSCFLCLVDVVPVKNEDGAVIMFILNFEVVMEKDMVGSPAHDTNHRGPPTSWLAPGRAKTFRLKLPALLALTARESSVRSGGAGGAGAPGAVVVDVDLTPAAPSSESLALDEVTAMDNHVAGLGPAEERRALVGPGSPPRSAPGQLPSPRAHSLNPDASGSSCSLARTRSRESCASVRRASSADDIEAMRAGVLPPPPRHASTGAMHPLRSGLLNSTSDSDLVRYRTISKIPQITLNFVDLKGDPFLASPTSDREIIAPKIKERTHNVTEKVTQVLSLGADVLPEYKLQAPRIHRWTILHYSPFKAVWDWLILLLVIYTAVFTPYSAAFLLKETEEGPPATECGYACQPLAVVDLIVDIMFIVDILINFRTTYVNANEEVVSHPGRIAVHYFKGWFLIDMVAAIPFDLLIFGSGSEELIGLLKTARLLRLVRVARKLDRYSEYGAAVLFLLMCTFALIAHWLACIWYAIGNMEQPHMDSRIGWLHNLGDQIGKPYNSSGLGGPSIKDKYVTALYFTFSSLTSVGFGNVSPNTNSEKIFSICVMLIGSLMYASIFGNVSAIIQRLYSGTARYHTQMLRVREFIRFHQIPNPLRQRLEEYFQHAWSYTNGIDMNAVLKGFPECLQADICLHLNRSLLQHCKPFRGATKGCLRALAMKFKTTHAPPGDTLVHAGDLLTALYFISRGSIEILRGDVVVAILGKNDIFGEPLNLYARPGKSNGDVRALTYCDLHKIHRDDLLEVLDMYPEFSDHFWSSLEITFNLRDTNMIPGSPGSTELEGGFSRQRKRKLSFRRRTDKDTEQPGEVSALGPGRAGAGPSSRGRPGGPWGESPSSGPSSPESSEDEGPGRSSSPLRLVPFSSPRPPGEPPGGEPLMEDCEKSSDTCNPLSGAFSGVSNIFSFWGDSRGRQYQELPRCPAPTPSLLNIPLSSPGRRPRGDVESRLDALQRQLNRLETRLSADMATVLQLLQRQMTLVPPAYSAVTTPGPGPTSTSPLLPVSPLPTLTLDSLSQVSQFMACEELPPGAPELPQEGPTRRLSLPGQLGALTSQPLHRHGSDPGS

For `CC(C)COc1ccc(Cl)cc1-c1ccccc1-c1cccc(C(=O)[O-])n1.[Na+]`, the Kp at 1 h [1] was 0.22, the Kp at 1 h [2] was 0.27 and the Kp at 1 h [3] was 0.72. For the same compound, the Kp at 1 h [4] was 0.48, the concentration at 1 h [5] was 5270 nM and the concentration at 1 h [6] was 822 nM. The Kp at 5 day [7] was 0.54, the Ki [8] was 2 µM and the EC50 [9] was > 10 µM. The EC50 [10] was 3.98 µM, the logD [11] was 1.9 and the Fu (Blood) was 0.5%. The clearance [12] was 11 mL/min/kg, the solubility at 24 h [13] was 11 µg/mL and the solubility at 2 h [14] was 1030 µg/mL. It also gave a solubility at 24 h [15] of 1050 µg/mL, a solubility at 2 h [16] of 1220 µg/mL and a Vd [17] of 1.9 L/kg. The half-life [18] was 3.5 h, the CL (Liver microsomes) was 1.9 mL/min/g and the concentration at 0.5 h [19] was 1120 nM. It also gave a Kp at 0.5 h [20] of 0.24, a concentration at 18 h [21] of 550 nM and a concentration at 1 h [22] of 645 nM. For the same compound, the concentration at 1 h [23] was 2140 nM, the concentration at 1 h [24] was 1070 nM and the Kp at 1 h [25] was 0.57. For the same compound, the IC50 [26] was > 31.6 µM.

Source: ChEMBL document CHEMBL1154508, “Discovery of GSK345931A: An EP(1) receptor antagonist with efficacy in preclinical models of inflammatory pain” (Bioorg Med Chem Lett, 2009)
